From patent US10301294B2, “Compounds for the treatment of tuberculosis” (priority 2013, dated 2019)

Assays:
[1] = test system: carbon-starved M. tuberculosis H37Rv; assay: Non-replicating IC90 determination by luciferase (carbon-starved cells); format: cell-based; details: luciferase; for IC99 / IC90: Mycobacterium tuberculosis, H37RV; for IC99: 120 h, read-out: Against carbon starved non-replicating Mtb IC99 (uM, luciferase); for IC99 / Against carbon starved non-replicating Mtb IC99 (uM, luciferase): None = inhibition did not reach 99%; for IC90: IC90 given in brackets beside IC99, read-out: Against carbon starved non-replicating Mtb IC90 (in brackets, luciferase)
[2] = test system: replicating M. tuberculosis H37Rv; assay: microbe, parasite or virus in culture; format: cell-based; details: None = inhibition did not reach 90%; for IC90: Mycobacterium tuberculosis, H37RV, read-out: Against Replicating Mtb IC90 (uM, GFP)

SMILES | IC99 [1] [µM] | IC90 [2] [µM] | Against carbon starved non-replicating Mtb IC99 (uM, luciferase) [1] | IC90 [1] [µM] | Against Replicating Mtb IC90 (uM, GFP) [2]
Clc1ccc(-c2nnc(SCc3ccccn3)o2)cc1 | 16 | 62 | – | – | –
[N-]=[N+]=NCCOCCNC(=O)CCCOc1ccc(CSc2nnc(-c3ccc(F)cc3)o2)nc1 | – | 125 | None | – | –
COC(=O)c1ccc(C[S+]([O-])c2nnc(-c3ccc(Cl)cc3)o2)nc1 (centres unmarked) | 4 | 125 | – | – | –
Fc1ccc(-c2nnc(SCCN3CCC(F)(F)CC3)o2)cc1 | – | – | None | 1 | None
COCCSc1nnc(-c2cccnc2)o1 | – | > 500 | None | – | –
COCCSc1nnc(-c2ccc(C)cc2)o1 | 31 | 31 | – | – | –
COc1ccc(CSc2nnc(-c3ccc(Cl)cc3)o2)nc1 [drawing 228] | 8 | 31 | – | – | –
COc1ccccc1-c1nnc(SCc2ccccn2)o1 | 125 | – | – | – | None
c1cncc(-c2nnc(SCCC3OCCCO3)o2)c1 | – | > 500 | None | – | –
Cc1ccc(-c2nnc([S+]([O-])Cc3cccc[n+]3[O-])o2)cc1 (centres unmarked) | 62 | 125 | – | – | –
C#CCCCOc1cccc(-c2nnc(SCc3ccccn3)o2)c1 | 16 | – | – | – | None
CS(=O)(=O)c1nnc(-c2ccccc2)o1 | 62 | 250 | – | – | –
CSc1nnc(-c2ccccc2)o1 | – | > 250 | None | – | –
[N-]=[N+]=NCCOCCNC(=O)CCCn1cc(C[S+]([O-])c2nnc(-c3ccc(F)cc3)o2)nn1 (centres unmarked) | 500 | 500 | – | 125 | –
c1ccc(-c2nnc(SCc3cccnc3)o2)cc1 [drawing 178] | 250 | 125 | – | – | –
Clc1ccc(-c2nnc(NCc3ccccn3)o2)cc1 | 125 | 500 | – | – | –
COCCOc1nnc(-c2ccc(Cl)cc2)o1 | 250 | > 500 | – | – | –
Clc1ccc(-c2nnc(OCc3ccccn3)o2)cc1 | 250 | 250 | – | – | –
[N-]=[N+]=NOCCNC(=O)CCCOc1ccc(-c2nnc([S+]([O-])Cc3ccccn3)o2)cc1 (centres unmarked) | 62 | 125 | – | – | –
c1ccc(-c2nnc(SCC3CC3)o2)cc1 | 31 | 125 | – | – | –
COC(=O)CCCOc1ccc(-c2nnc(SCc3ccccn3)o2)cc1 | 250 | 500 | – | – | –
CCCCCCCCCCCCSc1nnc(-c2ccccc2)o1 | 62 | 125 | – | – | –

SMILES | IC99 [1] [µM] | IC90 [2] [µM] | Against carbon starved non-replicating Mtb IC99 (uM, luciferase) [1] | IC90 [1] [µM] | Against Replicating Mtb IC90 (uM, GFP) [2]
[N-]=[N+]=NCCCOc1ccc(C[S+]([O-])c2nnc(-c3ccc(F)cc3)o2)nc1 (centres unmarked) | 4 | 31 | – | – | –
C#CCSc1nnc(-c2ccc(Cl)cc2)o1 | 16 | 31 | – | – | –
c1ccc(-c2nnc(SC3CCCCC3)o2)cc1 [drawing 181] | 62 | > 500 | – | – | –
Cc1cccc(CSc2nnc(-c3ccc(Cl)cc3)o2)n1 | 31 | 62 | – | – | –
Oc1ccc(-c2nnc(SCc3ccccn3)o2)cc1 | 62 | 125 | – | – | –
Clc1ccc(-c2nnc(SCCC3OCCCO3)o2)cc1 | 8 | 62 | – | – | –
Fc1ccc(CSc2nnc(-c3ccccc3)o2)cc1 [drawing 172] | – | 125 | None | – | –
COc1ccc(-c2nnc(SCc3ccccn3)o2)cc1 | 16 | 62 | – | – | –
c1cc(-c2nnc(SCCC3OCCCO3)o2)ccn1 | – | > 500 | None | – | –
[N-]=[N+]=NCCCOc1ccc(CSc2nnc(-c3ccc(F)cc3)o2)nc1 | 16 | 31 | – | – | –
Clc1ccc(-c2nnc(SCc3cn(Cc4ccccc4)nn3)o2)cc1 [drawing 224] | 16 | – | – | – | None
COCCNc1nnc(-c2ccc(Cl)cc2)o1 | – | > 500 | None | – | –
COc1cccc(-c2nnc(SCc3ccccn3)o2)c1 [drawing 227] | 16 | 62 | – | – | –
Brc1ccc(-c2nnc(SCc3ccccn3)o2)cc1 [drawing 212] | 8 | 31 | – | – | –
CCOC(=O)COc1ccc(-c2nnc(SCc3ccccn3)o2)cc1 | 31 | – | – | – | None
[N-]=[N+]=NCCOCCNC(=O)c1ccc(C[S+]([O-])c2nnc(-c3ccc(Cl)cc3)o2)nc1 (centres unmarked) | 62 | 250 | – | – | –
COCC[S+]([O-])c1nnc(-c2ccc(Cl)cc2)o1 (centres unmarked) [drawing 196] | 31 | 31 | – | – | –
OCCn1cc(CSc2nnc(-c3ccc(Cl)cc3)o2)nn1 | 31 | 62 | – | – | –
Cc1ccc(-c2nnc(SCc3ccccn3)o2)cc1 | 16 | 31 | – | – | –
[O-][n+]1ccccc1CSc1nnc(-c2ccccc2)o1 [drawing 194] | 125 | 62 | – | – | –
[O-][S+](Cc1ccccn1)c1nnc(-c2ccc(F)cc2)o1 (centres unmarked) | – | 31 | – | – | –
c1ccc(-c2nnc(SCCC3OCCCO3)o2)cc1 [drawing 168] | 62 | 125 | – | – | –

SMILES | IC99 [1] [µM] | IC90 [2] [µM] | Against carbon starved non-replicating Mtb IC99 (uM, luciferase) [1] | IC90 [1] [µM] | Against Replicating Mtb IC90 (uM, GFP) [2]
C#CCCCOc1ccc(C[S+]([O-])c2nnc(-c3ccc(F)cc3)o2)nc1 (centres unmarked) | 31 | 31 | – | – | –
COc1ccc(C[S+]([O-])c2nnc(-c3ccc(F)cc3)o2)nc1 (centres unmarked) | – | 31 | – | – | –
Fc1ccc(-c2nnc(SCc3ccccn3)o2)cc1 [drawing 215] | 62 | 31 | – | – | –
CS(=O)(=O)c1nnc(-c2ccc(Cl)cc2)o1 | 8 | 125 | – | – | –
CC(C)(C)c1ccc(CSc2nnc(-c3ccc(Cl)cc3)o2)cc1 | 62 | 250 | – | – | –
Fc1ccc(CCSc2nnc(-c3ccccc3)o2)cc1 | 250 | 250 | – | – | –
C#CCCCOc1cc(-c2nnc(SCc3ccccn3)o2)ccc1F | 64 | – | – | 4 | None
COCCS(=O)(=O)c1nnc(-c2ccc(Cl)cc2)o1 | 250 | > 500 | – | – | –
c1ccc(-c2nnc(SCc3ccncc3)o2)cc1 [drawing 179] | 500 | 250 | – | – | –
COCCSc1nnc(-c2ccc(Cl)cc2)o1 | 16 | 50 | – | – | –
[N-]=[N+]=NCCOCCNC(=O)CCCOc1ccc(C[S+]([O-])c2nnc(-c3ccc(Cl)cc3)o2)nc1 (centres unmarked) [drawing 240] | 16 | 250 | – | – | –
COC(=O)CCCOc1ccc(CSc2nnc(-c3ccc(F)cc3)o2)nc1 | 31 | 125 | – | – | –
O=C(CSc1nnc(-c2ccccc2)o1)c1ccc(Br)cc1 | – | > 500 | None | – | –
[O-][S+](Cc1ccccc1)c1nnc(-c2ccccc2)o1 (centres unmarked) [drawing 213] | 4 | 125 | – | – | –
O=S(=O)(Cc1ccccc1)c1nnc(-c2ccccc2)o1 [drawing 214] | 16 | 125 | – | – | –
COCCSc1nnc(-c2ccncc2)o1 | 500 | > 500 | – | – | –
[O-][S+](Cc1cn(Cc2ccccc2)nn1)c1nnc(-c2ccc(Cl)cc2)o1 (centres unmarked) [drawing 223] | 8 | 62 | – | – | –
COCCS(=O)(=O)c1nnc(-c2ccc(C)cc2)o1 | 8 | 31 | – | – | –
Fc1ccc(CSc2nnc(-c3cccnc3)o2)cc1 | 62 | > 500 | – | – | –
COc1ccc(CSc2nnc(-c3ccc(F)cc3)o2)nc1 | – | 16 to 31 | – | – | –
